Reference: patent publication US10844044B2 (Vanderbilt University, priority 2018, dated 2020)

What follows are molecules tested on MV4:11 human cancer cell lines (assay: Anti-proliferative activity, CellTiter-Glo viability assay, 7 day protocol). Details: Homo sapiens, 168 h, MV4:11 cells, 7 day incubation, read-out: GI50 on cellular proliferation of MV4:11 human cancer cell lines.
Type: cell-based
Description: Viability assays are performed by dispensing […] into each well of an opaque 384-well plate and adding compounds at the indicated concentrations in a final volume of 32 μL and a final concentration of DMSO of 0.1% for all samples. After a set incubation period, 7 day protocol, the viability of cells in each well is assessed using the CellTiter-Glo assay (Promega), read on a GloMax 96 Microplane Luminometer (Promega). Serial dilutions of each cell type are included in all assays to generate standard curves and determine assay measurements are taken within the dynamic range of the instrument. GI50 values are calculated based on three biological replicates, each with three technical replicates. Data are expressed as mean plus/minus S.E.M.

| GI50 [µM] | SMILES |
| --- | --- |
| 0.46 | Cc1cc(CNC(=O)c2cc(Cn3ccn(C)c3=N)cc(-c3c(C)cc(F)cc3C)c2)ccc1Cl [Example 59] |

Same assay, conditions: Homo sapiens, MV4-11, 168 h, MV4:11 cells, 7 day incubation, read-out: GI50 on cellular proliferation of MV4:11 human cancer cell lines

| SMILES | GI50 [µM] |
| --- | --- |
| Cc1cc(-c2cc(Cn3ccn(C)c3=N)cc(C(=O)NCc3ccc(Cl)c(Cl)c3)c2)ccn1 [Example 22, N-(3,4-Dichlorobenzyl)-3-((2-imino-3-methyl-2,3-dihydro-1H-imidazol-1-yl)methyl)-5-(2-methylpyridin-4-yl)benzamide] | 14 |
| COc1cnccc1-c1cc(Cn2ccn(C)c2=N)cc(C(=O)NCc2ccc(Cl)c(Cl)c2)c1 [Example 23, N-(3,4-Dichlorobenzyl)-3-((2-imino-3-methyl-2,3-dihydro-1H-imidazol-1-yl)methyl)-5-(3-methoxypyridin-4-yl)benzamide] | 6.2 |
| Cc1cc([C@H](NC(=O)c2cc(Cn3ccn(C)c3=N)cc(-c3ccc(F)cc3C)c2)C(F)(F)F)ccc1F [Example 45, (S)-4′-fluoro-5-((2-imino-3-methyl-2,3-dihydro-1H-imidazol-1-yl)methyl)-2′-methyl-N-(2,2,2-trifluoro-1-(4-fluor-3-methylphenyl)ethyl)-[1,1′-biphenyl]-3-carboxamide] | 1.8 |
| Cc1cc(CNC(=O)c2cc(Cn3ccn(C)c3=N)cc(-c3ncc(F)cc3C)c2)ccc1Cl [Example 70, N-(4-Chloro-3-methylbenzyl)-3-(5-fluoro-3-methylpyridin-2-yl)-5-((2-imino-3-methyl-2,3-dihydro-1H-imidazol-1-yl)methyl)benzamide] | 2.4 |

More lines, now with the values ahead:

| GI50 [µM] | SMILES |
| --- | --- |
| 0.24 | Cc1cc(F)ccc1-c1cc(Cn2ccn(C)c2=N)cc(C(=O)NCc2ccc(Cl)c(Cl)c2)n1 [Example 5, N-(3,4-dichlorobenzyl)-6-(4-fluoro-2-methylphenyl)-4-((2-imino-3-methyl-2,3-dihydro-1H-imidazol-1-yl)methyl)picolinamide] |
| 0.79 | Cn1nccc1-c1cc(Cn2ccn(C)c2=N)cc(C(=O)NCc2ccc(Cl)c(Cl)c2)c1 [Example 26, N-(3,4-Dichlorobenzyl)-3-((2-imino-3-methyl-2,3-dihydro-1H-imidazol-1-yl)methyl)-5-(1-methyl-1H-pyrazol-5-yl)benzamide] |
| 0.78 | Cc1cc([C@@H](C)NC(=O)c2cc(Cn3ccn(C)c3=N)cc(-c3ccc(F)cc3C)c2)ccc1F [Example 29, (R)-4′-Fluoro-N-(1-(4-fluoro-3-methylphenyl)ethyl)-5-((2-imino-3-methyl-2,3-dihydro-imidazol-1-yl)methyl)-2′-methyl-[1,1′-biphenyl]-3-carboxamide] |
| 0.1 | Cc1cc([C@H](C)NC(=O)c2cc(Cn3ccn(C)c3=N)cc(-c3ccc(F)cc3C)c2)ccc1F [Example 30, (S)-4′-Fluoro-N-(1-(4-fluoro-3-methylphenyl)ethyl)-5-((2-imino-3-methyl-2,3-dihydro-1H-imidazol-1-yl)methyl)-2′-methyl-[1,1′-biphenyl]-3-carboxamide] |
| 0.3 | Cc1cc(F)ccc1-c1cc(Cn2ccn(C)c2=N)cc(C(=O)N[C@@H](C)c2ccc(F)c(C(F)(F)F)c2)c1 [Example 31, (S)-4′-Fluoro-N-(1-(4-fluoro-3-(trifluoromethyl)phenyl)ethyl)-5-((2-imino-3-methyl-2,3-dihydro-1H-imidazol-1-yl)methyl)-2′-methyl-[1,1′-biphenyl]-3-carboxamide] |
| 1.5 | Cc1cc(F)ccc1-c1cc(Cn2ccn(C)c2=N)cc(C(=O)N[C@H](C)c2ccc(F)c(C(F)(F)F)c2)c1 [Example 32, (R)-4′-Fluoro-N-(1-(4-fluoro-3-(trifluoromethyl)phenyl)ethyl)-5-((2-imino-3-methyl-2,3-dihydro-1H-imidazol-1-yl)methyl)-2′-methyl-[1,1′-biphenyl]-3-carboxamide] |
| < 0.1 | Cc1cc([C@@H](NC(=O)c2cc(Cn3ccn(C)c3=N)cc(-c3ccc(F)cc3C)c2)C2CC2)ccc1F [Example 54, (S)—N-(Cyclopropyl(4-fluoro-3-methylphenyl)methyl)-4′-fluoro-5-((2-imino-3-methyl-2,3-dihydro-1H-imidazol-1-yl)methyl)-2′-methyl-[1,1′-biphenyl]-3-carboxamide] |
